# Test results taken from patent publication US10385065B2, “Antibacterial compounds” (priority 2014, dated 2019).
# Like-named read-outs stand apart in the source and are kept apart here.
# Key:
# Format in all cases: cell-based
# [1] = tested on: S. aureus (MRSA) ATCC 43300; experiment: MIC, S. aureus ATCC 43300; settings: Staphylococcus aureus; Table 2; read-out: MIC S. aureus (MRSA) ATCC 43300 Heterogeneous MRSA strain
# [2] = tested on: Escherichia coli ATCC 25922; experiment: MIC, broth microdilution, E. coli ATCC 25922; settings: ATCC25922, Table 1, wild type strain
# [3] = tested on: S. aureus NRS1 MRSA; experiment: MIC, S. aureus NRS1; settings: Staphylococcus aureus; Table 2; read-out: MIC S. aureus NRS1 MRSA AMG & TET resistant
# [4] = tested on: S. aureus SACPX1-SP25 MSSA - FQ resistant; experiment: microbe, parasite or virus in culture; settings: Staphylococcus aureus, ATCC 29213 / MSSA, read-out: MIC S. aureus SACPX1-SP25 MSSA - FQ resistant (isogenic mutant of ATCC 29213)
# [5] = tested on: S. aureus NRS127 MRSA LZD resistant; experiment: MIC, S. aureus NRS127; settings: Staphylococcus aureus; Table 2
# [6] = tested on: S. aureus NRS482 MRSA FQ resistant; experiment: MIC, S. aureus NRS482; settings: Staphylococcus aureus; Table 2
# [7] = tested on: Enterococcus faecium ATCC 19434; experiment: MIC, E. faecium ATCC 19434; settings: ATCC19434, Table 2
# [8] = tested on: Haemophilus influenzae ATCC 49247; experiment: MIC, H. influenzae ATCC 49247; settings: ATCC49247, Table 4
# [9] = tested on: S. epidermidis NRS101 MRSE; experiment: MIC, S. epidermidis NRS101; settings: Staphylococcus epidermidis; Table 2; read-out: MIC S. epidermidis NRS101 MRSE AMG, ERY resistant
# [10] = tested on: S. aureus VRS1 MRSA VAN resistant; experiment: MIC, S. aureus VRS1; settings: Staphylococcus aureus, Table 2
# [11] = tested on: human hepatic cell line (HepG2 ATCC HB-8065); experiment: Human cell viability assay (CellTiter-Glo), HepG2; settings: HepG2, 24 h incubation, tested over 1-128 μg/mL, read-out: IC50 values against HepG2
# Procedure, shortened: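 HepG2 seeded at 20,000 cells/well, then after 24 h given two-fold serial dilutions (1-128 μg/mL, 1% DMSO) in DMEM with 0.001% FBS and 0.3% albumin. After 24 h at 37 °C, ATP luminescence (CellTiter-Glo) read; IC50 is the concentration halving viability.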
# [12] = tested on: Staphylococcus aureus ATCC 29213; experiment: MIC, broth microdilution, S. aureus ATCC 29213
# [13] = tested on: Neisseria gonorrhoeae ATCC 49226; experiment: MIC, N. gonorrhoeae ATCC 49226; settings: ATCC49226, Table 4, 24 h incubation
# [14] = tested on: S. aureus NRS100 MRSA; experiment: MIC, S. aureus NRS100; settings: Staphylococcus aureus; Table 2
# [15] = tested on: Neisseria meningitidis ATCC 13090; experiment: MIC, N. meningitidis ATCC 13090; settings: ATCC13090, Table 4, 24 h incubation
# [16] = ATCC29213, Table 1, wild type strain, read-out: MIC S. aureus ATCC 29213
# [17] = ATCC 29213 / MSSA, Table 2, read-out: MIC S. aureus (MSSA) ATCC 29213 CLSI control strain
SMILES,IC50 [11] [µg/mL],MIC [14] [µg/mL],MIC [1] [µg/mL],MIC [2] [µg/mL],MIC [3] [µg/mL],MIC [4] [µg/mL],MIC [5] [µg/mL],MIC [6] [µg/mL],MIC [7] [µg/mL],MIC [8] [µg/mL],MIC [9] [µg/mL],MIC [10] [µg/mL],"MIC [12, 16] [µg/mL]","MIC [12, 17] [µg/mL]",MIC [13] [µg/mL],MIC [15] [µg/mL]
"Cc1c(-c2cnc3[nH]ncc3c2)ccc2c3ocnc3c(=O)n(C3CC3)c12 [Compound 20, 5-cyclopropyl-6-methyl-7-(1H-pyrazolo[3,4-b]pyridine-5-yl)oxazolo[4,5-c]quinolin-4-one]",> 100,,< 1,1 to 10,< 1,< 1,< 1,< 1,1 to 10,< 1,< 1,< 1,< 1,< 1,,
"Cc1nc2c(=O)n(C3CC3)c3c(C)c(-c4ccc(N)nc4)ccc3c2o1 [Compound 23, 7-(6-amino-3-pyridyl)-5-cyclopropyl-2,6-dimethyl-oxazolo[4,5-c]quinolin-4-one]",,,< 1,1 to 10,1 to 10,1 to 10,1 to 10,1 to 10,> 100,1 to 10,1 to 10,10 to 100,< 1,< 1,1 to 10,
"Cc1nc2c(=O)n(C3CC3)c3cc(N4CCC(CN)C4)c(F)cc3c2o1 (stereo not shown) [Compound 57, 7-[3-(aminomethyl)pyrrolidin-1-yl]-5-cyclopropyl-8-fluoro-2-methyl-oxazolo[4,5-c]quinolin-4-one]",10 to 100,,,1 to 10,1 to 10,1 to 10,,1 to 10,10 to 100,1 to 10,,,< 1,< 1,,1 to 10

# The next lines start with results.
IC50 [11] [µg/mL],MIC [14] [µg/mL],SMILES,MIC [1] [µg/mL],MIC [2] [µg/mL],MIC [3] [µg/mL],MIC [4] [µg/mL],MIC [5] [µg/mL],MIC [6] [µg/mL],MIC [7] [µg/mL],MIC [8] [µg/mL],MIC [9] [µg/mL],MIC [10] [µg/mL],"MIC [12, 16] [µg/mL]","MIC [12, 17] [µg/mL]",MIC [13] [µg/mL],MIC [15] [µg/mL]
> 100,,Cc1nc2c(=O)n(C3CC3)c3c(C)c(-c4ccc(C(N)=O)cc4)ccc3c2o1 [Compound 26],1 to 10,> 100,1 to 10,,1 to 10,1 to 10,> 100,1 to 10,< 1,1 to 10,< 1,< 1,,
10 to 100,,"Cc1nc2c(=O)n(C3CC3)c3c(C)c(-c4ccc5cn[nH]c5c4)ccc3c2o1 [Compound 27, 5-cyclopropyl-7-(l H-indazol-6-yl)-2,6-dimethyl-oxazolo[4,5-c]quinolin-4-one]",< 1,1 to 10,1 to 10,,10 to 100,< 1,> 100,1 to 10,< 1,10 to 100,< 1,< 1,,
10 to 100,1 to 10,"Cc1nc2c(=O)n(C3CC3)c3cc(N4CCC(C(C)N)C4)c(F)cc3c2o1 (stereo not shown) [Compound 54, 7-[3-(1-aminoethyl)pyrrolidin-1-yl]-5-cyclopropyl-8-fluoro-2-methyl-oxazolo[4,5-c]quinolin-4-one]",,1 to 10,,,,,10 to 100,1 to 10,,,1 to 10,1 to 10,,
